Measurements taken from patent US6495544B2, “Homoiminopiperidinyl hexanoic acid inhibitors of inducible nitric oxide synthase” (Pharmacia Corporation, priority 2000, dated 2002).

Assays:
[1] = target: T1, Human inducible NOS (hiNOS) (Homo sapiens, UniProt P35228); experiment: Citrulline assay for nitric oxide synthase, hiNOS; format: biochemical; conditions: 30 μM L-arginine, 37° C., 15 minutes
T1 construct: made in house; host or cells: Sf9 insect cells, baculovirus vector
Description: (§1) Nitric oxide synthase (NOS) activity is measured by monitoring the conversion of [^3H]-arginine to [^3H]-citrulline (Bredt and Snyder, Proc. Natl. Acad. Sci. U.S.A., 87, 682-685, 1990 and Misko et al, Eur. J. Pharm., 233, 119-125, 1993). Human inducible NOS (hiNOS), human endothelial constitutive NOS (hecNOS) and human neuronal constitutive NOS (hncNOS) are each cloned from RNA extracted from human tissue. The cDNA for human inducible NOS (hiNOS) is isolated from a lambda cDNA library made from RNA extracted from a colon sample from a patient with ulcerative colitis. The cDNA for human endothelial constitutive NOS (hecNOS) is isolated from a lambda cDNA library made from RNA extracted from human umbilical vein endothelial cells (HUVEC) and the cDNA for human neuronal constitutive NOS (hncNOS) is isolated from a lambda cDNA library made from RNA extracted from human cerebellum obtained from a cadaver. The recombinant enzymes are expressed in Sf9 insect cells using a baculovirus vector (Rodi et al, in The Biology of Nitric Oxide , Pt. 4: Enzymology Biochemistry and Immunology; Moncada, S., Feelisch, M., Busse, R., Higgs, E., Eds.; Portland Press Ltd.: London, 1995; pp 447-450). Enzyme activity is isolated from soluble cell extracts and partially purified by DEAE-Sepharose chromatography. To measure NOS activity, 10 μL of enzyme is added to 40 μL of 50 mM Tris (pH 7.6) in the presence or absence of test compounds and the reaction initiated by the addition of 50 μL of a reaction mixture containing 5 mM Tris (pH 7.6), 2.0 mg/mL bovine serum albumin, 2.0 mM DTT, 4.0 mM CaCl2, 20 μM FAD, 100 PM tetrahydrobiopterin, 0.4-2.0 mM NADPH and 60 μM L-arginine containing 0.9 μCi of L-[2,3-^3H]-arginine. The final concentration of L-arginine in the assay is 30 μM. For hecNOS or hncNOS, calmodulin is included at a final concentration of 40-100 nM. […] [3H]-Citrulline is separated by chromatography on Dowex 50W X-8 cation exchange resin and radioactivity determined with a liquid scintillation counter. […]

[2] = target: T2, human endothelial constitutive NOS (hecNOS) (Homo sapiens, UniProt P29474); experiment: Citrulline assay for nitric oxide synthase, hecNOS; format: biochemical; conditions: 30 μM L-arginine, 37° C., 15 minutes, calmodulin
T2 construct: made in house; host or cells: Sf9 insect cells, baculovirus vector
Description: as §1

[3] = target: T3, human neuronal constitutive NOS (hncNOS) (Homo sapiens, UniProt P29475); experiment: Citrulline assay for nitric oxide synthase, hncNOS; format: biochemical; conditions: 30 μM L-arginine, 37° C., 15 minutes, calmodulin
T3 construct: made in house; host or cells: Sf9 insect cells, baculovirus vector
Description: as §1

[4] = system: inducible nitric oxide synthase; experiment: In vivo assay, endotoxin-treated rats, plasma nitrite/nitrate; conditions: oral; for ED50: Rattus norvegicus, read-out: ED50, inhibition of LPS-induced increase in plasma nitrite/nitrate
Description: Compounds are administered orally 0.5-1 hours prior to LPS administration and plasma nitrite/nitrate levels are determined 5 hours following LPS administration.

[5] = system: nitric oxide synthase induced by recombinant human IL-1β in human cartilage explants; experiment: Human cartilage explant assay, nitrite production; format: cell-based; conditions: IL-1β stimulated, read-out: IC50, inhibition of nitrite production
Description: Bone pieces are rinsed twice with Dulbecco's Phosphate Buffered Saline (GibcoBRL) and once with Dulbecco's Modified Eagles Medium (GibcoBRL) and placed into a petri dish with phenol red free Minimum Essential Medium (MEM) (GibcoBRL). Cartilage was cut into small explants of approximately 25-45 mg in weight and one or two explants per well are placed into 48 well culture plates with 500 μL of culture media per well. The culture media was either a custom modification of Minimum Essential Medium(Eagle) with Earle's salts (GibcoBRL) prepared without L-Arginine, without L-Glutamine and without phenol red or a custom modification of serumless Neuman and Tytell (GibcoBRL) medium prepared without L-arginine, without insulin, without ascorbic acid, without L-glutamine and without phenol red. Both are supplemented before use with 100 μM L-Arginine (Sigma), 2 mM L-glutamine, 1×HL-1 supplement (BioWhittaker), […] ascorbic acid (Sigma) and 150 pg/ml recombinant human IL-1β (RD Systems) to induce nitric oxide synthase. Compounds are then added in 10 μL aliquots and the explants incubated at 37° C. with 5% CO2 for 18-24 hours. […] This supernatant is analyzed for nitrite with a fluorometric assay (Misko et al, Anal. Biochem., 214, 11-16, 1993). […] IC50 values (Table III) are determined from plotting the percent inhibition of nitrite production at six different concentrations of inhibitor.

[6] = target: T4, hecNOS (Homo sapiens, UniProt P29474); experiment: Assay for time dependent inhibition, hecNOS; format: biochemical; conditions: 60 min preincubation, read-out: % inhibition of NOS activity, hecNOS
T4 construct: made in house; host or cells: Sf9 insect cells, baculovirus vector
T4 sequence (P29474 2-1203): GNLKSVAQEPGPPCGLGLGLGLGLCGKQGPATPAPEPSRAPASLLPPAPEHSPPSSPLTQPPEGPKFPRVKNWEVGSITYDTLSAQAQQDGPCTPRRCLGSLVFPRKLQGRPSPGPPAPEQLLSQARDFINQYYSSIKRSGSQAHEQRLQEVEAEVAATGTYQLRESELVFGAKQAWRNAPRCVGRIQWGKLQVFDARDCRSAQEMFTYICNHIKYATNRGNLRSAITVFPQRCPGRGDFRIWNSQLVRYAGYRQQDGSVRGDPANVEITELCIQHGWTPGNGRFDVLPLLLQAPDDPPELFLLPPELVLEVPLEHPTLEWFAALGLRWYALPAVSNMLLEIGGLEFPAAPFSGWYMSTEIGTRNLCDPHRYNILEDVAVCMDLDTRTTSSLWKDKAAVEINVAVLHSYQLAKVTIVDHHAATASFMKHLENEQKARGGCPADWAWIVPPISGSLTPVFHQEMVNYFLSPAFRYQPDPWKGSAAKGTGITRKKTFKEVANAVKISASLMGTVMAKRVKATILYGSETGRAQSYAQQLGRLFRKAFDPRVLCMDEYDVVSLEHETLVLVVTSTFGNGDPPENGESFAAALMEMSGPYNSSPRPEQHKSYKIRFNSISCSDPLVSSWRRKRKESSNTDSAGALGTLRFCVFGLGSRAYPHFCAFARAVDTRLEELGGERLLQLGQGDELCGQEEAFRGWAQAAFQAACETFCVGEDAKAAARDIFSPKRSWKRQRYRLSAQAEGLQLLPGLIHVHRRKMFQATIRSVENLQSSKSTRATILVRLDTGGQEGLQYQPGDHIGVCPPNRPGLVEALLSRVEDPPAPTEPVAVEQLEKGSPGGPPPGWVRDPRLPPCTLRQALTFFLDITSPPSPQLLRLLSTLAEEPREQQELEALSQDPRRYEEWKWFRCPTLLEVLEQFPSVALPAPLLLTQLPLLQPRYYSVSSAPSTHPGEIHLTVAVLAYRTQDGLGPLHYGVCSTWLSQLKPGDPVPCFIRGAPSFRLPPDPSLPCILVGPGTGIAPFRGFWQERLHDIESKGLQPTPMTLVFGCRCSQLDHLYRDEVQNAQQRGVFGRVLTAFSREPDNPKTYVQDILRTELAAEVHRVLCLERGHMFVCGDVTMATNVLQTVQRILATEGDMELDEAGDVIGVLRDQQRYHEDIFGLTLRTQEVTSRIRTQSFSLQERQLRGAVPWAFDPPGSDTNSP
Description: as §1, with “447-450).” for “447-450). Enzyme activity is isolated from soluble cell extracts and partially purified by DEAE-Sepharose chromatography. To measure NOS activity, 10 μL of enzyme is added to 40 μL of 50 mM Tris (pH 7.6) in the presence or absence of test compounds and the reaction initiated by the addition of 50 μL of a reaction mixture containing 5 mM Tris (pH 7.6), 2.0 mg/mL bovine serum albumin, 2.0 mM DTT, 4.0 mM CaCl2, 20 μM FAD, 100 PM tetrahydrobiopterin, 0.4-2.0 mM NADPH and 60 μM L-arginine containing 0.9 μCi of L-[2,3-^3H]-arginine. The final concentration of L-arginine in the assay is 30 μM. For hecNOS or hncNOS, calmodulin is included at a final concentration of 40-100 nM.”

[7] = target: T5, hncNOS (Homo sapiens, UniProt P29475); experiment: Assay for time dependent inhibition, hncNOS; format: biochemical; conditions: 60 min preincubation
T5 construct: made in house; host or cells: Sf9 insect cells, baculovirus vector
T5 sequence (P29475 whole entry): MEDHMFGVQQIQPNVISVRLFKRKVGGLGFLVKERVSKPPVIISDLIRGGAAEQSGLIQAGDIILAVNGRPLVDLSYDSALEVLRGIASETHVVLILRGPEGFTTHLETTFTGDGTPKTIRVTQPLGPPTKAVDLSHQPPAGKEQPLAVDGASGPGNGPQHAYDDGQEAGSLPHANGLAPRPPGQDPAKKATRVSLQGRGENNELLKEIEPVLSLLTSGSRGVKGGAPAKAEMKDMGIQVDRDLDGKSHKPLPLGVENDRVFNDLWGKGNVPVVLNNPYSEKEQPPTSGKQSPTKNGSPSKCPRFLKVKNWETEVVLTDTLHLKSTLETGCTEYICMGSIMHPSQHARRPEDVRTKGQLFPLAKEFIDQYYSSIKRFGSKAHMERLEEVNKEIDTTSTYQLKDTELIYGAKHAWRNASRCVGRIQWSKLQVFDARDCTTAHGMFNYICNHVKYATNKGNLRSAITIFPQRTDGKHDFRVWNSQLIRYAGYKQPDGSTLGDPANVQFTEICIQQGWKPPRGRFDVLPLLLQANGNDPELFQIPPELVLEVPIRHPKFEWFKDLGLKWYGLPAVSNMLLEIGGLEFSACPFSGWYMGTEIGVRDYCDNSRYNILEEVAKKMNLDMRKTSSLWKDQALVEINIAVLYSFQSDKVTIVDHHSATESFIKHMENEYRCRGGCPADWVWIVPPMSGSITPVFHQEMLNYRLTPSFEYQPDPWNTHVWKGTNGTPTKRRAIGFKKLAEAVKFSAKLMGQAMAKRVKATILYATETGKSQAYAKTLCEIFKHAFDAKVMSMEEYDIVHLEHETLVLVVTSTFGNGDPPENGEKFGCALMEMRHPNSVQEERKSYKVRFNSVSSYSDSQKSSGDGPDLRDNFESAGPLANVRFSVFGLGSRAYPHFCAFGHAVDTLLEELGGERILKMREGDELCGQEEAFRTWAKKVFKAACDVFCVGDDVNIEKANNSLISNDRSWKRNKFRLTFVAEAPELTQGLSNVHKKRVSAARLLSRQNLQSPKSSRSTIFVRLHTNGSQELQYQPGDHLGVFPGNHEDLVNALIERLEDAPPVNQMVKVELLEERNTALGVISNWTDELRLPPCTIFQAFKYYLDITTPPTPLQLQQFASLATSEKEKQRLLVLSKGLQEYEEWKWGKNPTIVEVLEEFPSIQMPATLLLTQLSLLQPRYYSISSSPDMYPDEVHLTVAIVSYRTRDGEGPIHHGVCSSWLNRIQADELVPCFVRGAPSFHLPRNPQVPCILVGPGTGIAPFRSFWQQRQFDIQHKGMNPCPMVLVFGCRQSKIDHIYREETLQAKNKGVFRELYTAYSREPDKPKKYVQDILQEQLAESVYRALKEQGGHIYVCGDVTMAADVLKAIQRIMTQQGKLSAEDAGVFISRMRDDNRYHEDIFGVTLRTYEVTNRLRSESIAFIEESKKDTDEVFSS
Description: as §1

[8] = 0.5-1 hours prior to LPS, plasma 5 hours after LPS

| Structure (SMILES) | IC50 [1] | IC50 [2] | IC50 [3] | ED50 [4, 8] | effect on LPS-induced increase in plasma nitrite/nitrate levels [4] | ED50, inhibition of LPS-induced increase in plasma nitrite/nitrate ([4]; 0.5-1 hours prior to LPS, plasma 5 hours after LPS, trihydrate hydrochloride) | IC50 [5] | inhibition at 33 µM [6] | % inhibition of NOS activity, hncNOS ([7]; 5 μM) | % inhibition of NOS activity, hncNOS ([7]; 13 μM) | % inhibition of NOS activity, hncNOS ([7]; 3 μM) |
| --- | --- | --- | --- | --- | --- | --- | --- | --- | --- | --- | --- |
| Cl.N=C1CCCC[C@H](CCCC[C@@H](N)C(=O)O)N1.O.O.O [Example 1, (αR,2S)-α-aminohexahydro-7-imino-1H-azepine-2-hexanoic acid, trihydrate hydrochloride] | < 3 µM | > 30 µM | > 3 µM | < 3 mg/kg | inhibited the LPS-induced increase in plasma nitrite/nitrate levels in a dose dependent manner | <3 mg/kg | < 10 µM | 11% | 0% @ 5 μM @ 60 min |  |  |
| Cl.N=C1CCCC[C@@H](CCCC[C@H](N)C(=O)O)N1.O.O.O [Example 2, (αS,2R)-α-aminohexahydro-7-imino-1H-azepine-2-hexanoic acid, trihydrate hydrochloride] | < 5 µM | > 150 µM | > 10 µM |  |  |  |  |  |  | 0% @ 13 μM @ 60 min |  |
| Cl.N=C1CCCC[C@H](CCCC[C@H](N)C(=O)O)N1.O.O.O [Example 4, (αS,2S)-α-aminohexahydro-7-imino-1H-azepine-2-hexanoic acid, trihydrate hydrochloride] | < 3 µM | > 15 µM | > 3 µM | < 5 mg/kg |  |  | < 10 µM |  |  |  | 0% @ 3 μM @ 60 min |
